Experimental data as given in article PMC11521309, “A novel 4-aminoquinoline chemotype with multistage antimalarial activity and lack of cross-resistance with PfCRT and PfMDR1 mutants” (PLOS Pathogens, 2024).
“And” between values parts separate entries of the source, which are not always exact repeats. Equal values may be shown once. Read-outs that look alike come from different tables or passages of the source.

Tests used:
[1] = Host cell confluency, Alamar Blue; assay type: cell-based, human; settings: human, pH 7; maximum concentration of 4 μM; read-out: Huh-7 cell viability
Experimental: (§1) In vitro inhibition of Plasmodium liver stage infection was assessed using bioluminescence data from Huh-7 cells infected with a firefly-luciferase-expressing P. berghei line, PbGFP-Luccon, in the presence of various compound concentrations. […] One day before drug treatment and infection, 10^4 Huh-7 cells/well were seeded in 96-well plates. The medium was then replaced by an infection medium (culture medium supplemented with 50 μg/mL gentamycin and 0.8 μg/mL amphotericin B) containing desired concentrations of test compounds. Fresh sporozoites recovered from salivary glands of infected female Anopheles stephensi mosquitoes were added to seeded Huh-7 cells at a 1:1 proportion, followed by centrifugation at 1700g for 5 minutes and incubation for 46 hours at 37°C under 5% CO2. Compound toxicity against Huh-7 cells was assessed by measuring […] using the Alamar Blue assay (Invitrogen). IC50 values were calculated using nonlinear regression analysis (GraphPad Prism version 9).

Huh-7 cells = assay: Host cell confluency, Alamar Blue; assay type: cell-based, human
Experimental: as §1

P. falciparum NF10^YF = assay: ABS susceptibility, pfmdr1-modified line; assay type: cell-based; settings: Plasmodium falciparum
Experimental: (§2) P. falciparum ABS parasites were cultured at 3% hematocrit in human O^+ RBCs in RPMI-1640 media supplemented with 25 mM HEPES, 50 mg/L hypoxanthine, 2 mM L-glutamine, 0.21% sodium bicarbonate, 0.5% (w/v) AlbuMAXII (Invitrogen) and 10 μg/mL gentamycin. Culture flasks were kept in modular incubator chambers (Billups-Rothenberg) in a 5% O2, 5% CO2, and 90% N2 atmosphere at 37°C. Synchronized ring-stage parasites were obtained by two consecutive rounds of treatment with 5% D-sorbitol in 48-hour intervals. […] This was done by exposing cultures at 1% hematocrit and 0.3% parasitemia in 96-well plates in the presence of drugs in a two-fold 10 or 12-point serial dilution in duplicate along with drug-free controls. After a 72-hour incubation, parasite survival was assessed by flow cytometry on an iQue flow cytometer (Sartorius) using SYBR Green and MitoTracker Deep Red FM (Life Technologies) as nuclear stain and vital dye, respectively. Parasite survival was determined as a percentage relative to drug-free control. IC50 values were interpolated from log concentration versus response curves in Prism 9 (GraphPad Prism Software Inc.).

P. falciparum FCB^KD1 = assay: ABS susceptibility, pfmdr1-modified line; assay type: cell-based; settings: Plasmodium falciparum
Experimental: as §2

P. falciparum FCB [2] = assay: ABS susceptibility, pfmdr1-modified line; assay type: cell-based; settings: Plasmodium falciparum
Experimental: as §2

[3] = test system: pool of barcoded P. falciparum lines (Dd2 and 3D7 backgrounds); assay: Resistome growth assay, pool of 51 barcoded lines; assay type: cell-based, Plasmodium falciparum; settings: 3 × IC50 constant, 14 days
Experimental: The resistome growth assay employs a parasite pool consisting of 51 barcoded lines including both Dd2 and 3D7 genetic backgrounds, with wild-type lines for both (S3 Table). Most lines used were derived from in vitro resistance selection experiments, with others having been CRISPR edited. All lines were barcoded via CRISPR editing of a 101bp barcode cassette into the non-essential pfpare locus (PF3D7_0709700). Parasites were cultured in RPMI-1640 medium supplemented with HEPES (5.94 g/L), NaHCO3 (2.1 g/L), glutamax (1×), hypoxanthine (50 mg/L), gentamycin ([…]), and AlbumaxII (5 g/L) at a […]. Parasite growth was monitored over 14 days by flow cytometry (Cytoflex, Beckman Coulter) by staining with 1× SYBR Green and 0.2 μM MitoTracker Deep Red. Parasitemia adjustments were made to maintain a healthy range of <5% parasitemia. Parasite cultures were harvested at day 14 and lysed by saponin (0.05%), with pellets washed twice with PBS. Barcodes were PCR amplified using 5 μL of parasite pellet and sequenced by Illumina amplicon sequencing.

[4] = test system: PfCRT variants (7G8, 7G8^F145I, 7G8^C350R); assay: SSM-based electrophysiology (SURFE2R N1) of PfCRT proteoliposomes; assay type: biochemical, Plasmodium falciparum; settings: 10 μM, distinct PfCRT isoforms
Experimental: Solid Supported Membrane (SSM)-based electrophysiological measurements were performed using SURFE^2R N1 technology (Nanion Technologies, Inc.) according to published protocols. Briefly, sensors were coated with 1-octadecanethiol (Sigma-Aldrich), rinsed, and 1,2-diphytanoyl-sn-glycero-3-phosphocholine (Avanti Polar Lipids, Inc) was added. Immediately, the sensor was filled with 50 μL non-activating buffer (10 mM Tris-MES, pH 5.5) and PfCRT-containing proteoliposomes (PLs). To generate a K^+ diffusion potential-driven ΔΨ, valinomycin was included at a final concentration of 80 nM [34, 35]. The activating solution (10 mM Tris-MES, pH 5.5 containing either 10 μM CQ, PPQ, LDT-623, pyrimethamine, or atovaquone) was applied using a single-solution exchange protocol (activating buffer incubation for 1 second). Each measurement was repeated at least twice employing at least three different sensors. Peak currents for PfCRT were corrected by subtracting the peak currents recorded with control liposomes (lacking this transporter). To acquire the PfCRT-elicited charge (Coulomb) movement associated with drug transport, the area under the curve (current as a function of time) was analyzed with GraphPad Prism version 10.

P. falciparum FCB [5] = settings: read-out: IC50 FCB; means ± SEM, N 4; ref 2 Sidhu et al. 2006; cited from earlier work
P. falciparum 7G8^F145I = test system: P. falciparum 7G8^F145I; parameters: key to Phenotype, 7G8^F145I: S: sensitive; R: resistant; settings: cited from earlier work
P. falciparum Dd2^F145I = test system: P. falciparum Dd2^F145I; parameters: key to Phenotype, Dd2^F145I: S: sensitive; R: resistant; settings: cited from earlier work

## COc1cc2nccc(Nc3cccc(Oc4ccccc4)c3)c2cc1OC [LDT-623]
[1]
  viability at 46 h, 4 µM: > 86%
Huh-7 cells; 0.01 µM, Average
  % Confluency: 101.66%
Huh-7 cells; 0.01 µM, Rep #1, Rep #2 singly, DMSO = 100
  % Confluency: 99.85% and 103.48%
Huh-7 cells; 0.10 µM, Average
  % Confluency: 101.70%
Huh-7 cells; 0.10 µM, Rep #1, Rep #2 singly, DMSO = 100
  % Confluency: 101.55% and 101.85%
Huh-7 cells; 0.50 µM, Average
  % Confluency: 106.57%
Huh-7 cells; 0.50 µM, Rep #1, Rep #2 singly, DMSO = 100
  % Confluency: 104.91% and 108.24%
Huh-7 cells; 1.00 µM, Average
  % Confluency: 99.74%
Huh-7 cells; 1.00 µM, Rep #1, Rep #2 singly, DMSO = 100
  % Confluency: 99.78% and 99.70%
Huh-7 cells; 1.50 µM, Average
  % Confluency: 103.34%
Huh-7 cells; 1.50 µM, Rep #2 only, DMSO = 100
  % Confluency: 103.34%
Huh-7 cells; 2.00 µM, Average
  % Confluency: 99.65%
Huh-7 cells; 2.00 µM, Rep #1, Rep #2 singly, DMSO = 100
  % Confluency: 99.68% and 99.63%
Huh-7 cells; 3.00 µM, Average
  % Confluency: 92.74%
Huh-7 cells; 3.00 µM, Rep #1, Rep #2 singly, DMSO = 100
  % Confluency: 93.69% and 91.80%
Huh-7 cells; 4.00 µM, Average
  % Confluency: 86.71%
Huh-7 cells; 4.00 µM, Rep #1 only, DMSO = 100
  % Confluency: 86.71%
P. falciparum NF10^YF; read-out: IC50 NF10YF
  IC50: 360.2 ± 1.9 nM
P. falciparum NF10^YF; read-out: IC90 NF10YF
  IC90: 562.9 ± 2.8 nM
P. falciparum FCB^KD1; read-out: IC50 FCBKD1
  IC50: 488 ± 12 nM
P. falciparum FCB^KD1; read-out: IC90 FCBKD1
  IC90: 7650 ± 1120 nM
P. falciparum FCB [2]; read-out: IC50 FCB
  IC50: 414 ± 12.9 nM
P. falciparum FCB [2]; read-out: IC90 FCB
  IC90: 4430 ± 164 nM
[3]
  growth recovery of barcoded pool: no growth recovery
[4]
  PfCRT-specific currents: elicits the same magnitude of currents as CQ and PPQ

## CCN(CC)CCCC(C)Nc1ccnc2cc(Cl)ccc12 (stereo not drawn) [CQ, chloroquine]
P. falciparum FCB [5]
  IC50: 217 ± 34.6 nM
P. falciparum 7G8^F145I; 7G8F145I, mean ± SEM, ref 3 (Kim et al., 2019)
  IC50: 7.3 ± 0.4 nM
P. falciparum 7G8^F145I; ref [19],[20],[51]
  Phenotype, 7G8^F145I: S
P. falciparum Dd2^F145I; Dd2F145I, mean ± SEM, ref 1 (Ross et al., 2018)
  IC50: 19.3 ± 1.3 nM
P. falciparum Dd2^F145I; a: sensitized to CQ compared to the parental line but not fully sensitive, ref [19],[20],[51]
  Phenotype, Dd2^F145I: S ^a
